Source: publication PMC5115179 (Pharmacology Research & Perspectives, 2016)

What was measured:
[1] = tested on: rat; parameters: method as in Poggioli et al., 1999; settings: rat, 25, 100, 200 mg/kg p.o.; ref Poggioli et al., 1999; cited from earlier work
[2] = NCS‐382–diclofenac interaction study (inhibition of NCS‐382 glucuronidation); settings: mouse
Procedure: In this study, mice (n = 3–4 per group) were assigned (balanced for weight and gender) to one of three treatments and collected at one of three time points (0.5, 1, or 2 h).

[3] = tested on: gamma‐butyrolactone‐treated mice; test: GBL‐mediated response protection by NCS‐382 in the absence and presence of diclofenac; type: in vivo; settings: mouse
Procedure: Wild‐type C57/B6 mice (mixed gender, n = 7) were bred in‐house, weaned at day of life (DOL) 21, and randomized to a treatment sequence (Fig. 2). […] Thirty minutes later, mice were given an i.p. injection of GBL (100 mg/kg diluted in PBS) and were placed into a clean round arena (~10 inches in diameter) and were allowed access to food and water. Mice were recorded on a camera operated by Serena acquisition software (recorded for 10 min). At 5 and 10 min following GBL, righting reflex was assessed. These procedures were repeated daily with ~24 h in between sessions. Data file names were coded such that treatments were blinded at the time of video data analysis. During video data analysis, the time of which noticeable loss of motor function or coordination (e.g., “loss of motor function”) was observed, and the time taken for the subject to enter a dissociative state and fall into an unsupported prone position (e.g., “time to loss of motion”) was monitored. Righting reflex was evaluated by placing the mouse in a supine position and the time to return to all four paws was recorded based on the timestamp of the playback video. Data for each treatment group were expressed as the mean and standard deviation, and statistical significance was evaluated using one‐way ANOVA and Tukey post hoc t test (P < 0.05).
Wild‐type C57/B6 mice (mixed gender, n = 7) were bred in‐house, weaned at day of life (DOL) 21, and randomized to a treatment sequence. […] Thirty minutes later, mice were given an i.p. injection of GBL (100 mg/kg in PBS) and were placed into a clean round arena (~10 inches in diameter) and were allowed access to food and water. Mice were recorded on a camera operated by Sirena acquisition software (recorded for 10 min). At 5 and 10 min following GBL, righting reflex was assessed. These procedures were repeated daily with ~24 h in between sessions. Data files names were coded such that video analysis was blinded at the time of data recording.

[4] = tested on: rat; parameters: method as in Nava et al., 2001; settings: dose n.s., i.p., ref Nava et al., 2001; cited from earlier work
[5] = tested on: rat; parameters: method as in Hicks et al., 2004; settings: 50 mg/kg i.v., ref Hicks et al., 2004; cited from earlier work
[6] = tested on: rat; parameters: method as in Colombo et al., 1999; settings: 400 mg/kg i.p., ref Colombo et al., 1999; cited from earlier work
[7] = Metabolite formation kinetics in HLMs; type: in vitro ADME; settings: human liver microsomes
Procedure: (§1) Microsomal incubations were conducted as described above with modifications. […] The K m was calculated using nonlinear regression in Graphpad Prism. Due to the lack of authentic standard and relatively short rate of parent disappearance, the maximum formation velocity (V max) could not be determined for either metabolites.

[8] = tested on: rat; parameters: method as in Lamb et al., 2003; settings: rat, 3.2, 32 mg/kg i.p; ref Lamb et al., 2003; cited from earlier work
[9] = tested on: rat; parameters: method as in Baker et al., 2008; settings: rat, 25, 50, 100 mg/kg i.g.; ref Baker et al., 2008; cited from earlier work
[10] = tested on: aldh5a1^−/− mice; parameters: method as in Gupta et al. 2002; settings: ref Gupta et al. 2002; cited from earlier work
[11] = Metabolite identification in samples from mouse pharmacokinetic studies (candidate metabolites); type: in vivo; settings: LC‐MS/MS of NCS‐382‐treated mouse samples
Procedure: Metabolite identification was conducted on samples obtained from pharmacokinetic studies in mice. Analytical conditions and equipment were similar to those described above with some modifications. Samples (10 μL) were injected onto a Kinetex PFP (50 × 2.1 mm, 1.7 μm particle size) UPLC column maintained at 40°C. […] MS experiments consisted of enhanced MS (EMS), neutral loss (NL), precursor ion scan (Prec), and MRM each followed by MS/MS experiments when necessary. Constant conditions such as a source temperature (450°C), signal threshold (500 cps), and CAD gas (“high”) were used, while additional parameters (e.g., collision energy, collision energy spread, mass range, etc.) were obtained by the software during data‐dependent scans. Studies were performed using sera and brain samples, with time points pooled for individual matrices and a reference control derived by pooling the sera or brain homogenates from three vehicle‐treated animals.
Using the Light Sight software, a comprehensive list of prospective phase I and phase II metabolites were targeted (Table S2). […] A number of structurally feasible metabolites (including oxidation) were initially identified, but could not be confirmed by their mass fragmentation patterns. […] Both peaks were detected in urine samples (Fig. S1B), but not in feces.

[12] = tested on: rat; parameters: method as in Colombo et al., 1995; settings: rat, 12.5, 25, 50 mg/kg i.p.; ref Colombo et al., 1995; cited from earlier work
[13] = tested on: rat; parameters: method as in Schmidt-Mutter et al., 1998; settings: 300 mg/kg i.p., ref Schmidt-Mutter et al., 1998; cited from earlier work
[14] = Excretion of NCS‐382 in urine and feces (metabolic cages); type: in vivo; settings: mouse, pooled urine of 3 mice
Procedure: To ensure sufficient volumes of urine could be collected in each of the 2 h time intervals (baseline, 0–2, 2–4, 4–6, 6–8 h), three mice were dosed simultaneously and their urine and feces pooled for analysis. The total dose in μg administered to the three animals was therefore used to calculate the percent of the dose excreted in the urine pooled from all three mice. Animals were allowed ad libitum access to food and water of which the intake of each was monitored.
Samples (3 μL) were injected onto a Kinetex PFP (50 × 2.1 mm, 1.7 μm particle size) UPLC column and eluted with a binary gradient consisting of water with 0.1% formic acid (mobile phase A) and methanol with 0.1% formic acid (mobile phase B). […] Eluent was directed to waste for the initial 0.4 min then to an ABI Sciex 6500 Qtrap tandem mass spectrometer. […] Where necessary, samples were diluted in blank matrices for analysis.
Pharmacokinetic outcomes were obtained via standard noncompartmental methods using Kinetica (version 5.1, Thermo Fisher Scientific, Waltham, MA). The maximum concentration (C max) was obtained directly from the concentration–time profiles. Area under the concentration–time curve (AUC) from time zero to the last collected time point was determined using the trapezoidal method with linear up/log down interpolation.

[15] = tested on: pigeon; parameters: method as in Koek et al., 2006; settings: pigeon, 54, 178, 320, 560 mg/kg, route ns; ref Koek et al., 2006; cited from earlier work
[16] = molecular target: GHB receptor; parameters: method as in Molnár et al. 2006; settings: ref Molnár et al. 2006; cited from earlier work
[17] = Metabolite formation kinetics in MLMs; type: in vitro ADME; settings: mouse liver microsomes
Procedure: as §1

[18] = 120 min, read-out: Km for dehydrogenation
[19] = saturation not obtained, read-out: Km for glucuronidation

For `O=C(O)/C=C1\CCCc2ccccc2C1O` (centres unmarked) [NCS‐382, 6,7,8,9‐tetrahydro‐5‐hydroxy‐5H‐benzo‐cyclohept‐6‐ylideneacetic acid], the gastric emptying [1] is given as “dose dependently, ↓ gastric emptying”, the “prokinetic effect of GHB” value [1] is given as “antagonized the prokinetic effect of GHB” and the AUC(0-t) ([2]; both, in vivo, 300 mg/kg) is given as 411 µM·h. The “Brain AUC0–2 h [90% CI]” value ([2]; treatment NCS‐382 300 mg/kg + Diclofenac 25 mg/kg) was 182 [164–200] ^a nmol/g/tissue*h, the “Brain AUC0–2 h [90% CI]” value ([2]; treatment NCS‐382 300 mg/kg alone) was 128 [115–141] nmol/g/tissue*h and the “time to loss of motor function compared to vehicle control” value ([3]; NCS‐382 300 mg/kg with diclofenac 25 mg/kg i.p. 30 min before GBL 100 mg/kg i.p.) was “significantly improved”. For the same molecule, the “time to loss of motor function compared to vehicle control” value ([3]; given alone i.p. (NCS‐382 300 mg/kg or diclofenac 25 mg/kg) 30 min before GBL 100 mg/kg i.p.) was “trended toward increasing”, the “GHB-induced decrease of hippocampal acetylcholine release” value [4] was “GHB-induced ↓ of hippocampal acetylcholine release is mediated by GABAB receptors, based on ineffective blocking by NCS-382” and the “increase in heart rate induced by GHB” value [5] was “reversed the ↑ in heart rate”. For the same molecule, the “pressor response induced by GHB” value [5] was “not the pressor response”, the blood ethanol levels [6] was “NCS-382 reduces blood ethanol levels, likely due to a lessened absorption of ethanol from the gastrointestinal tract” and the Km [7, 18] was 12.7 ± 4.8 µM. For the same molecule, the Km [7, 19] was over 100 µM, the “motor effects of GHB” value [8] was “NCS-382 did not antagonize the motor effects of GHB, consistent with the belief that many of the behavioral actions of exogenously administered GHB result from GHB's actions at sites other than the GHB receptor” and the “GHB's (300 mg/kg) discriminative stimulus effects” value [9] was “GHB's (300 mg/kg) discriminative stimulus effects were obliterated by the GABAB receptor antagonist, CGP-35348 and slightly attenuated by NCS 382”. The “lifespan of SSADHD mice” value [10] was “significant lifespan extension”, the “Peak Area (%)” value [11] was 25% and the “discriminative stimulus effects of GHB” value [12] was “Blockade of the discriminative stimulus effects of gamma-hydroxybutyric acid (GHB) by the GHB receptor antagonist NCS-382”. The “reversal of the anxiolytic effect of GHB” value [13] was “The anxiolytic effect of GHB were reversed by the benzodiazepine receptor antagonist, flumazenil, but not by naloxone or NCS-382”, the “total dose administered recovered unchanged in the urine over 8 h” value ([14]; 100 mg/kg) was 0.1% and the “total dose administered recovered unchanged in the urine over 8 h” value ([14]; 300 mg/kg) was 1.1%. The “total dose administered recovered unchanged in the urine over 8 h” value ([14]; 500 mg/kg) was 3.3%, the effects of diazepam [15] was “GHB, its precursors 1,4-BD and GBL, and NCS-382 did not attenuate the effects of diazepam” and the Ki [16] was 1200 nM. It also gave a Km [17, 18] of 29.5 ± 10 µM and a Km [17, 19] of over 100 µM.
